Assay results: patent publication US20260152501A1, “CYCLIN MODULATOR” (EUBULUS BIOTHERAPEUTICS (HONG KONG) LIMITED, priority 2022, published 2026)

Experiments:
Cyclin K = test: Immunohistochemistry (IHC) staining of Cyclin K in HepG2 cells; format: cell-based; conditions: incubated with compound 2 hours, CCNK antibody
Method: Appropriate amount of compounds were added to the cultured cells. The cells were incubated in a tissue culture incubator at 37° C. for 2 hours.
After washing the cultured cells twice with PBS, 100 μL 10% neutral buffered formalin were added and the cells were fixed for 20 minutes.
After washing 3 times with PBS, immunohistochemical staining was performed using CCNK antibody and general two-step detection kit (mouse/rabbit enhanced polymer detection system, PV-9000, Zsbio Inc, Beijing).
Specifically, 100 μL of endogenous peroxidase blocker in the kit was added, cells were incubated at room temperature for 10 minutes; rinsed with PBS buffer for 3 minutes×3 times.
100 μL CCNK antibody 1:5000 dilution was added, and the cells were incubated at 37° C. for 60 minutes; rinsed with PBS buffer for 3 minutes×3 times.
100 μL reaction enhancer was added, and the cells were incubated at 37° C. for 20 minutes; rinsed with PBS buffer for 3 minutes×3 times.
100 μL enhanced enzyme-labeled goat anti-mouse/rabbit IgG polymer was added, and the cells were incubated at 37° C. for 20 minutes; rinsed with PBS buffer for 3 minutes×3 times.
The cells were placed in 75% ethanol, soaked for 3 minutes×2 times; placed in 95% ethanol, soaked for 3 minutes×2 times; after removing excess liquid, placed in anhydrous ethanol, soaked for 3 minutes×3 times; after removing excess liquid, air dried, observed under a microscope and taken pictures after sealing.

HepG2 cells = test: Antiproliferative effect on HepG2 cells; format: cell-based; conditions: Homo sapiens
Method: Reagents: RPMI-1640 medium, McCoy's 5A medium, IMDM medium, MEM medium, L-15 medium, fetal bovine serum, Penicillin-Streptomycin double antibody, trypsin, etc., 2-mercaptoethanol, NEAA, pyruvate, etc.
The test cells were cultured in conventional ways, and the cells should be passed for at least 2 generations before plating.
All cells were subjected to IC50 test for corresponding samples.
The fluorescence intensity of each well was detected using the Alarm blue method, and EC50 was calculated.
IC50 was calculated according to the following formula:
[formula] • wherein, Min, Max and Slope represent the minimum, maximum and slope respectively.

SMILES | Cyclin K IHC data of HepG2 cells (Cyclin K) | IC50 (HepG2 cells) [nM]
CC(C)n1cnc2c(NCc3ccc(-c4ccccc4)cc3)nc(N3CCN[C@H](CCO)C3)nc21 [UB-031, (R)-2-(4-(6-(([1,1′-biphenyl]-4-ylmethyl)amino)-9-isopropyl-9H-purin-2-yl)piperazin-2-yl) ethan-1-ol] | B (31 nM < B <= 93 nM) | –
CC(C)n1cnc2c(NCc3ccc(-c4ccccc4)cc3)nc(N3CCNC4(CC4)C3)nc21 [UB-059, N-([1,1′-biphenyl]-4-ylmethyl)-9-isopropyl-2-(4,7-diazaspiro[2.5]octan-7-yl)-9H-purin-6-amine] | B (31 nM < B <= 93 nM) | –
CC(C)n1cnc2c(NCc3ccc(-c4ccccc4)cc3)nc(N3CCN[C@@H](CCO)C3)nc21 [UB-030, (S)-2-(4-(6-(([1,1′-biphenyl]-4-ylmethyl)amino)-9-isopropyl-9H-purin-2-yl)piperazin-2-yl) ethan-1-ol] | B (31 nM < B <= 93 nM) | –
CC(C)n1cnc2c(NCc3ccc(-c4ccccc4)cc3)nc(NC3CCNCC3)nc21 [UB-016, N6-([1,1′-biphenyl]-4-yl-methyl)-9-isopropyl-N2-(Piperidin-4-yl)-9H-purin-2,6-diamine] | C (93 nM < C <= 278 nM) | –
CC(C)n1cnc2c(NCc3ccc(-c4ccccc4)cc3)nc(N3CCNC[C@@H]3C)nc21 [UB-021, (S)-N-([1,1′-biphenyl]-4-ylmethyl)-9-isopropyl-2-(2-methylpiperazin-1-yl)-9H-purin-6-amine] | C (93 nM < C <= 278 nM) | 50 to 100
CCCOc1ccccc1-c1ccc(CNc2nc(N3CCNCC3)nc3c2ncn3C(C)C)cc1 [UB-049, 9-isopropyl-2-(piperazin-1-yl)-N-((2′-propoxy-[1,1′-biphenyl]-4-yl)methyl)-9H-purin-6-amine] | D (D > 278 nM) | 100 to 300
CC(C)n1cnc2c(NCc3ccc(-c4ccccc4)cc3)nc(N[C@@H]3CCNC3)nc21 [UB-038, (R)-N6-([1,1′-biphenyl]-4-ylmethyl)-9-isopropyl-N2-(pyrrolidin-3-yl)-9H-purin-2,6-diamine] | C (93 nM < C <= 278 nM) | < 50
CC(C)n1cnc2c(NCc3ccc(-c4ccccc4OCCN)cc3)nc(N3CCNCC3)nc21 [UB-048, N-((2′-(2-aminoethoxy)-[1,1′-biphenyl]-4-yl)methyl)-9-isopropyl-2-(piperazin-1-yl)-9H-purin-6-amine] | D (D > 278 nM) | > 300
CC(C)n1cnc2c(NCc3ccc(-c4ccccc4)cc3)nc(N3CCNC[C@H]3CCO)nc21 [UB-024, (R)-2-(1-(6-(([1,1′-biphenyl]-4-ylmethyl)amino)-9-isopropyl-9H-purin-2-yl)piperazin-2-yl) ethan-1-ol] | A (A <= 31 nM) | –
CC(C)n1cnc2c(NCc3ccc(-c4ccccc4)cc3)nc(N[C@H]3CCNC3)nc21 [UB-037, (S)-N6-([1,1′-biphenyl]-4-ylmethyl)-9-isopropyl-N2-(pyrrolidin-3-yl)-9H-purin-2,6-diamine] | C (93 nM < C <= 278 nM) | < 50
CC(C)n1cnc2c(NCc3ccc(-c4ccccc4)cc3)nc(N3CCN[C@H](C)C3)nc21 [UB-027, (R)-N-([1,1′-biphenyl]-4-ylmethyl)-9-isopropyl-2-(3-methylpiperazin-1-yl)-9H-purin-6-amine] | A (A <= 31 nM) | < 50
CC(C)n1cnc2c(NCc3ccc(-c4ccccc4)cc3)nc(OC[C@H]3CNCCN3)nc21 [UB-034, (R)-N-([1,1′-biphenyl]-4-ylmethyl)-9-isopropyl-2-(piperazin-2-ylmethoxy)-9H-purin-6-amine] | C (93 nM < C <= 278 nM) | 50 to 100
CCCOc1cc(CNc2nc(N3CCNCC3)nc3c2ncn3C(C)C)ccc1-c1ccccc1 [UB-044, 9-isopropyl-2-(piperazin-1-yl)-N-((2-propoxy-[1,1′-biphenyl]-4-yl)methyl)-9H-purin-6-amine] | D (D > 278 nM) | > 300
CC(C)n1cnc2c(NCc3ccc(-c4ccccc4)cc3)nc(N3CCNC[C@@H]3CO)nc21 [UB-023, (R)-(1-(6-(([1,1′-biphenyl]-4-ylmethyl)amino)-9-isopropyl-9H-purin-2-yl)piperazin-2-yl) methanol] | C (93 nM < C <= 278 nM) | 50 to 100
Fc1cccc(-n2cnc3c(NCc4ccc(-c5ccccc5)cc4)nc(N4CCNCC4)nc32)c1 [UB-054, N-([1,1′-biphenyl]-4-ylmethyl)-9-(3-fluorophenyl)-2-(piperazin-1-yl)-9H-purin-6-amine] | D (D > 278 nM) | –
CC(C)n1cnc2c(NCc3ccc(-c4ccccc4OCCCC#N)cc3)nc(N3CCNCC3)nc21 [UB-051, 4-((4′-(((9-isopropyl-2-(piperazin-1-yl)-9H-purin-6-yl)amino)methyl)-[1,1′-biphenyl]-2-yl)oxy)butyronitrile] | D (D > 278 nM) | 100 to 300
CC(C)n1cnc2c(NCc3ccc(-c4ccccc4)cc3)nc(N3C[C@@H](C)N[C@H](C)C3)nc21 [UB-032, N-([1,1′-biphenyl]-4-ylmethyl)-2-((3R,5R)-3,5-dimethylpiperazin-1-yl)-9-isopropyl-9H-purin-6-amine] | D (D > 278 nM) | –
c1ccc(-c2ccc(CNc3nc(N4CCNCC4)nc4c3ncn4C3CCC3)cc2)cc1 [UB-052, N-([1,l′-biphenyl]-4-ylmethyl)-9-cyclobutyl-2-(piperazin-1-yl)-9H-purin-6-amine] | C (93 nM < C <= 278 nM) | < 50
CC(C)n1cnc2c(NCc3ccc(-c4ccccc4OCCCCO)cc3)nc(N3CCNCC3)nc21 [UB-050, 4-((4′-(((9-isopropyl-2-(piperazin-1-yl)-9H-purin-6-yl)amino)methyl)-[1,1′-biphenyl]-2-yl)oxy)butan-1-ol] | D (D > 278 nM) | 100 to 300
CC(C)n1cnc2c(NCc3ccc(-c4ccccc4)c(OCCCC#N)c3)nc(N3CCNCC3)nc21 [UB-063, 4-((4-(((9-isopropyl-2-(piperazin-1-yl)-9H-purin-6-yl)amino)methyl)-[1,1′-biphenyl]-2-yl)oxy)butyronitrile] | D (D > 278 nM) | 100 to 300
CC(C)n1cnc2c(NCc3ccc(-c4ccccc4)c(O)c3)nc(N3CCNCC3)nc21 [UB-042] | B (31 nM < B <= 93 nM) | < 50
CC(C)n1cnc2c(NCc3ccc(-c4ccccc4)cc3)nc(N3CCN[C@H](CO)C3)nc21 [UB-029, (S)-(4-(6-(([1,1′-biphenyl]-4-ylmethyl)amino)-9-isopropyl-9H-purin-2-yl)piperazin-2-yl) methanol] | B (31 nM < B <= 93 nM) | –
CC(C)n1cnc2c(NCc3ccc(-c4ccccc4)c(OCCO)c3)nc(N3CCNCC3)nc21 [UB-043, 2-((4-(((9-isopropyl-2-(piperazin-1-yl)-9H-purin-6-yl)amino)methyl)-[1,1′-biphenyl]-2-yl)oxy)ethanol] | D (D > 278 nM) | 100 to 300
CC(C)n1cnc2c(NCc3ccc(-c4ccccc4O)cc3)nc(N3CCNCC3)nc21 [UB-046, 4′-(((9-isopropyl-2-(piperazin-1-yl)-9H-purin-6-yl)amino)methyl)-[1,1′-biphenyl]-2-ol] | D (D > 278 nM) | 100 to 300
CC(C)n1cnc2c(NCc3ccc(-c4ccccc4)cc3)nc(N3CCNC[C@@H]3CCO)nc21 [UB-025, (S)-2-(1-(6-(([1,1′-biphenyl]-4-ylmethyl)amino)-9-isopropyl-9H-purin-2-yl)piperazin-2-yl) ethan-1-ol] | A (A <= 31 nM) | –
CC(C)n1cnc2c(NCc3ccc(-c4ccccc4)cc3)nc(N3C[C@@H](C)N[C@@H](C)C3)nc21 [UB-060, N-([1,1′-biphenyl]-4-ylmethyl)-2-((3R,5S)-3,5-dimethylpiperazin-1-yl)-9-isopropyl-9H-purin-6-amine] | A (A <= 31 nM) | –
CC(C)n1cnc2c(NCc3ccc(-c4ccccc4)cc3)nc(N3CCN[C@@H](CO)C3)nc21 [UB-028, (R)-(4-(6-(([1,1′-biphenyl]-4-ylmethyl)amino)-9-isopropyl-9H-purin-2-yl)piperazin-2-yl) methanol] | A (A <= 31 nM) | –
